Experiments:
Bcr-Abl = details: cited from earlier work; for pIC50 Exp: 58-purine 3D-QSAR database, Table S3; for IC50: earlier purines of the group
K562 cells = assay: Cytotoxicity, resazurin assay, K562; type: cell-based, human; details: Homo sapiens, K562; 72 h, resazurin, GI50 ± SD
Protocol: (§1) The development of the KCL22 subclone B8 (T315I, 100%) has been previously detailed. All cell lines were maintained in a humidified incubator at 37 °C and 5% CO2, following the manufacturer’s instructions, in the appropriate medium supplemented with 10% foetal bovine serum, penicillin (100 IU/mL), streptomycin (100 µg/mL), and glutamine (4 mM).
(§2) Cytotoxicity was assessed utilizing resazurin, an indicator dyes that measures oxidation-reduction reactions in the mitochondria of living cells. Cells were seeded into 96-well plates and treated with the compounds for 72 h (six different doses of each compound, in triplicate).

KCL22 cells = assay: Cytotoxicity, resazurin assay, KCL22; type: cell-based, human; details: Homo sapiens, KCL-22; 72 h, resazurin, GI50 ± SD
Protocol: as §1, §2

HEK-293T cells = assay: Cytotoxicity, resazurin assay, non-neoplastic HEK-293T; type: cell-based; details: Homo sapiens, 72 h, GI50 ± SD
Protocol: The human cell line KCL22 was sourced from the German Collection of Microorganisms and Cell Cultures, while K562 and HEK-293T cells were obtained from the European Collection of Authenticated Cell Cultures. The development of the KCL22 subclone B8 (T315I, 100%) has been previously detailed. All cell lines were maintained in a humidified incubator at 37 °C and 5% CO2, following the manufacturer’s instructions, in the appropriate medium supplemented with 10% foetal bovine serum, penicillin (100 IU/mL), streptomycin (100 µg/mL), and glutamine (4 mM).
Cytotoxicity was assessed utilizing resazurin, an indicator dyes that measures oxidation-reduction reactions in the mitochondria of living cells. Cells were seeded into 96-well plates and treated with the compounds for 72 h (six different doses of each compound, in triplicate). After treatment, a solution of resazurin (Merck, Prague, Czech Republic) was added for 4 h, and the fluorescence of resorufin corresponding to viable cell quantity was measured at 544 nm/590 nm (excitation/emission) using a Fluoroskan Ascent microplate reader (LabSystems, Helsinki, Finland).

Row | SMILES | pIC50 Exp (Bcr-Abl) | also measured
1 | CN1CCN(c2ccc(Nc3nc(Nc4cccc(OC(F)(F)F)c4)c4ncn(CC5CC5)c4n3)cc2)CC1 [Compound 19] | 5.939 | 
2 | CN1CCN(c2ccc(Nc3nc(Nc4cccc(F)c4)c4ncn(CC5CC5)c4n3)cc2F)CC1 [Compound 9] | 6.222 | 
3 | OCCN1CCN(c2ccc(Nc3nc(Nc4ccc(F)c(F)c4)c4ncn(CC5CC5)c4n3)cc2)CC1 [Compound 52] | 7.703 | 
4 | COc1ccc(Nc2nc(Nc3ccc(N4CCN(C)CC4)c(F)c3)nc3c2ncn3CC2CC2)cc1 [Compound 11] | 6.469 | 
5 | Cc1cccc(Nc2nc(Nc3ccc(N4CCN(C)CC4)cc3)nc3c2ncn3CC2CC2)c1 [Compound 16] | 7.000 | 
6 | CN1CCN(c2ccc(Nc3nc(Nc4ccc(Cl)c(F)c4)c4ncn(CC5CC5)c4n3)cc2)CC1 [Compound 27] | 6.699 | 
7 | CN1CCN(c2ccc(Nc3nc(Nc4ccc(Cl)c(Cl)c4)c4ncn(CC5CC5)c4n3)cc2)CC1 [Compound 26] | 7.155 | 
8 | CCCCCn1cnc2c(Nc3ccc(F)c(F)c3)nc(Nc3ccc(N4CCN(C)CC4)cc3)nc21 [Compound 37] | 5.866 | 
9 | CCCCCCn1cnc2c(Nc3cccc(F)c3)nc(Nc3ccc(N4CCN(CCO)CC4)cc3)nc21 [Compound 57] | 6.174 | 
10 | CN1CCN(c2ccc(Nc3nc(Nc4ccc(F)cc4)c4ncn(CC5CC5)c4n3)cc2F)CC1 [Compound 8] | 5.971 | 
11 | CN1CCN(c2ccc(Nc3nc(NCc4ccccc4)c4ncn(CC5CC5)c4n3)cc2)CC1 [Compound 49] | 6.076 | 
12 | CN1CCN(c2ccc(Nc3nc(Nc4cccc(F)c4)c4ncn(CC5CC5)c4n3)cc2)CC1 [Compound 3] | 7.398 | 
13 | CCCCCCn1cnc2c(Nc3ccccc3)nc(Nc3ccc(N4CCN(C)CC4)cc3)nc21 [Compound 38] | 5.008 | 
14 | OCCN1CCN(c2ccc(Nc3nc(Nc4cccc(F)c4)c4ncn(CC5CC5)c4n3)cc2)CC1 [VII] | 7.833 | IC50 (Bcr-Abl): 15 nM
15 | CN1CCN(c2ccc(Nc3nc(Nc4ccc(F)c(F)c4)c4ncn(CC5CC5)c4n3)cc2F)CC1 [Compound 10] | 6.237 | 
16 | CN1CCN(c2ccc(Nc3nc(Nc4cccc([N+](=O)[O-])c4)c4ncn(CC5CC5)c4n3)cc2)CC1 [Compound 20] | 6.770 | 
17 | CN1CCN(c2ccc(Nc3nc(Nc4ccc([N+](=O)[O-])cc4)c4ncn(CC5CC5)c4n3)cc2)CC1 [Compound 22] | 6.886 | 
18 | CN1CCN(c2ccc(Nc3nc(Nc4ccccc4)c4ccn(CC5CC5)c4n3)cc2)CC1 [Compound 44] | 4.206 | 
19 | CC(C)CCn1cnc2c(Nc3cccc(F)c3)nc(Nc3ccc(N4CCN(CCO)CC4)cc3)nc21 [Compound 54] | 6.886 | 
20 | CCCCCCn1cnc2c(Nc3ccc(F)c(F)c3)nc(Nc3ccc(N4CCN(C)CC4)cc3)nc21 [Compound 40] | 4.469 | 
21 | CN1CCN(C(=O)c2ccc(Nc3nc(Nc4ccc(F)c(F)c4)c4ncn(CC5CC5)c4n3)cc2)CC1 [Compound 31] | 6.027 | 
22 | CN1CCN(c2ccc(Nc3nc(Nc4cccc(C(F)(F)F)c4)c4ncn(CC5CC5)c4n3)cc2)CC1 [Compound 18] | 5.75 | 
23 | CCCCCn1cnc2c(Nc3cccc(F)c3)nc(Nc3ccc(N4CCN(C)CC4)cc3)nc21 [Compound 42] | 6.187 | 
24 | CC(C)CCn1cnc2c(Nc3cccc(F)c3)nc(Nc3ccc(N4CCN(C)CC4)cc3)nc21 [Compound 34] | 4.301 | 
25 | CN1CCN(c2ccc(Nc3nc(Nc4ccc(F)c(F)c4)c4ncn(CC5CC5)c4n3)cc2)CC1 [Compound 4] | 7.398 | 
26 | CN1CCN(c2ccc(Nc3nc(Nc4ccccc4F)c4ncn(CC5CC5)c4n3)cc2)CC1 [Compound 14] | 5.378 | 
27 | CN1CCN(C(=O)c2ccc(Nc3nc(Nc4cccc(F)c4)c4ncn(CC5CC5)c4n3)cc2)CC1 [Compound 30] | 6.244 | 

Row | SMILES | pIC50 Exp (Bcr-Abl) | also measured
28 | COC(=O)c1ccc(Nc2nc(Nc3ccc(N4CCN(C)CC4)cc3)nc3c2ncn3CC2CC2)cc1 [Compound 24] | 7.398 | 
29 | CN1CCN(Cc2ccc(Nc3nc(Nc4ccc(F)c(F)c4)c4ncn(CC5CC5)c4n3)cc2)CC1 [Compound 48] | 6.649 | 
30 | CN1CCN(c2ccc(Nc3nc(Nc4ccc(F)c(Cl)c4)c4ncn(CC5CC5)c4n3)cc2)CC1 [Compound 25] | 6.569 | 
31 | CN1CCN(c2ccc(Nc3nc(NC4CCCCC4)c4ncn(CC5CC5)c4n3)cc2)CC1 [Compound 47] | 4.956 | 
32 | COc1cc(Cl)ccc1Nc1nc(Nc2ccc(N3CCN(C)CC3)c(F)c2)nc2c1ncn2CC1CC1 [Compound 13] | 5.074 | 
33 | CC(C)CCn1cnc2c(Nc3ccccc3)nc(Nc3ccc(N4CCN(C)CC4)cc3)nc21 [Compound 36] | 5.750 | 
34 | CC(C)CCn1cnc2c(Nc3ccccc3)nc(Nc3ccc(N4CCN(CCO)CC4)cc3)nc21 [Compound 53] | 5.907 | 
35 | CCCCCn1cnc2c(Nc3ccccc3)nc(Nc3ccc(N4CCN(C)CC4)cc3)nc21 [Compound 35] | 5.910 | 
36 | CN1CCN(c2ccc(Nc3nc(Nc4cccc(C#N)c4)c4ncn(CC5CC5)c4n3)cc2)CC1 [Compound 15] | 7.155 | 
37 | COc1cc(Nc2nc(Nc3ccc(N4CCN(C)CC4)cc3)nc3c2ncn3CC2CC2)c(OC)cc1Cl [Compound 5] | 4.444 | 
38 | CN1CCN(c2ccc(Nc3nc(Nc4cccc(C#N)c4)c4ncn(CC5CC5)c4n3)cc2)CC1 [X] |  | IC50 (Bcr-Abl): 70 nM
39 | CN1CCN(Cc2ccc(Nc3nc(Nc4cccc(F)c4)c4ncn(CC5CC5)c4n3)cc2)CC1 [Compound 45] | 6.744 | 
40 | CCCCCCn1cnc2c(Nc3ccccc3)nc(Nc3ccc(N4CCN(CCO)CC4)cc3)nc21 [Compound 56] | 6.081 | 
41 | COc1cc(Cl)ccc1Nc1nc(Nc2ccc(N3CCN(C)CC3)cc2)nc2c1ncn2CC1CC1 [Compound 6] | 6.097 | 
42 | CCCCCCCCn1cnc2c(Nc3ccc(F)c(F)c3)nc(Nc3ccc(N4CCN(C)CC4)cc3)nc21 [Compound 32] | 4.063 | IC50 (Bcr-Abl): 86500 nM
43 | CN1CCN(C(=O)c2ccc(Nc3nc(Nc4ccccc4)c4ncn(CC5CC5)c4n3)cc2)CC1 [Compound 29] | 5.917 | 
44 | CC(C)CCn1cnc2c(Nc3ccc(F)c(F)c3)nc(Nc3ccc(N4CCN(CCO)CC4)cc3)nc21 [Compound 55] | 5.754 | 
45 | CCCCCCn1cnc2c(Nc3ccc(F)c(F)c3)nc(Nc3ccc(N4CCN(CCO)CC4)cc3)nc21 [Compound 58] | 5.775 | 
46 | CN1CCN(c2ccc(Nc3nc(Nc4ccc(OC(F)(F)F)c([N+](=O)[O-])c4)c4ncn(CC5CC5)c4n3)cc2)CC1 [Compound 28] | 6.357 | 
47 | CN1CCN(c2ccc(Nc3nc(N)c4ncn(CC5CC5)c4n3)cc2)CC1 [Compound 46] | 5.403 | 
48 | CN1CCN(c2ccc(Nc3nc(Nc4cccc(Cl)c4)c4ncn(CC5CC5)c4n3)cc2)CC1 [Compound 17] | 6.921 | 
49 | CN1CCN(c2ccc(Nc3nc(Nc4ccc(OC(F)(F)F)cc4)c4ncn(CC5CC5)c4n3)cc2)CC1 [Compound 21] | 6.409 | 
50 | Cc1ccc(NC(=O)c2ccc(CN3CCN(C)CC3)cc2)cc1Nc1nccc(-c2cccnc2)n1 [imatinib, reference compound] |  | GI50 (K562 cells): 230 ± 10 nM; GI50 (KCL22 cells): 9260 ± 1000 nM; GI50 (HEK-293T cells): > 10000 nM
51 | CN1CCN(c2ccc(Nc3nc(Nc4ccc(C#N)cc4)c4ncn(CC5CC5)c4n3)cc2)CC1 [Compound 23] | 7.000 | 
52 | CN1CCN(c2ccc(Nc3nc(Nc4ccccc4)c4ncn(CC5CC5)c4n3)cc2F)CC1 [Compound 7] | 6.237 | 
53 | CC(C)CCn1cnc2c(Nc3ccc(F)c(F)c3)nc(Nc3ccc(N4CCN(C)CC4)cc3)nc21 [Compound 43] | 5.642 | 
